Measured values as given in PubChem BioAssay (NCI).
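Tested at 5 concentrations; 48 h exposure; 96-well plates; endpoints linearly interpolated, else capped at highest concentration. Definition used: TGI = concentration required for complete inhibition of growth.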

Assays:
Experiment in all cases: NCI anticancer screen, dose series, 48 h
[1] = tested on: SNB-75 CNS
[2] = tested on: HL-60(TB) leukemia
[3] = tested on: SK-OV-3 ovarian
[4] = tested on: UACC-62 melanoma
[5] = tested on: 786-0 renal
[6] = tested on: HCT-15 colon
[7] = tested on: M14 melanoma
[8] = tested on: A549 NSCLC
[9] = tested on: HOP-92 NSCLC
[10] = tested on: MCF7 breast
[11] = tested on: OVCAR-3 ovarian
[12] = tested on: COLO 205 colon
[13] = tested on: MALME-3M melanoma
[14] = tested on: HCT-116 colon
[15] = tested on: T-47D breast
[16] = tested on: OVCAR-5 ovarian
[17] = tested on: BT-549 breast
[18] = tested on: SR leukemia
[19] = tested on: SF-539 CNS
[20] = tested on: ACHN renal
[21] = tested on: MDA-MB-231 breast
[22] = tested on: HT29 colon
[23] = tested on: NCI/ADR-RES ovarian
[24] = tested on: NCI-H522 lung
[25] = tested on: DU-145 prostate
[26] = tested on: UACC-257 melanoma
[27] = tested on: SK-MEL-2 melanoma
[28] = tested on: HOP-62 NSCLC
[29] = tested on: KM12 colon
[30] = tested on: NCI-H460 lung
[31] = tested on: SW-620 colon
[32] = tested on: SF-295 CNS
[33] = tested on: CCRF-CEM leukemia
[34] = tested on: OVCAR-8 ovarian
[35] = tested on: SK-MEL-28 melanoma
[36] = tested on: K-562 leukemia
[37] = tested on: SNB-19 CNS
[38] = tested on: HCC-2998 colon
[39] = tested on: NCI-H226 lung
[40] = tested on: UO-31 renal
[41] = tested on: HS 578T breast
[42] = tested on: CAKI-1 renal
[43] = tested on: PC-3 prostate
[44] = tested on: LOX IMVI melanoma
[45] = tested on: RPMI-8226 leukemia
[46] = tested on: MDA-MB-435
[47] = tested on: IGROV1 ovarian
[48] = tested on: NCI-H23 lung
[49] = tested on: A498 renal
[50] = tested on: OVCAR-4 ovarian
[51] = tested on: TK-10 renal
[52] = tested on: MOLT-4 leukemia
[53] = tested on: U251 CNS
[54] = tested on: MDA-N
[55] = tested on: SF-268 CNS
[56] = tested on: SK-MEL-5 melanoma
[57] = tested on: RXF 393 renal
[58] = tested on: SN12C renal
[59] = tested on: EKVX NSCLC

NCCc1c[nH]c2ccc(OC(=O)C(=O)O)cc12
TGI [1]: > 100 µM | TGI [2]: 23.2 µM | TGI [3]: > 100 µM | TGI [4]: > 100 µM | TGI [5]: > 100 µM | TGI [6]: > 100 µM | TGI [7]: > 100 µM | TGI [8]: > 100 µM | TGI [9]: > 100 µM | TGI [10]: > 100 µM | TGI [11]: > 100 µM | TGI [12]: > 100 µM | TGI [13]: > 100 µM | TGI [14]: > 100 µM | TGI [15]: > 100 µM | TGI [16]: > 100 µM | TGI [17]: > 100 µM | TGI [18]: > 100 µM | TGI [19]: > 100 µM | TGI [20]: > 100 µM | TGI [21]: > 100 µM | TGI [22]: > 100 µM | TGI [23]: > 100 µM | TGI [24]: > 100 µM | TGI [25]: > 100 µM | TGI [26]: > 100 µM | TGI [27]: > 100 µM | TGI [28]: > 100 µM | TGI [29]: > 100 µM | TGI [30]: > 100 µM | TGI [31]: > 100 µM | TGI [32]: > 100 µM | TGI [33]: > 100 µM | TGI [34]: > 100 µM | TGI [35]: > 100 µM | TGI [36]: > 100 µM | TGI [37]: > 100 µM | TGI [38]: > 100 µM | TGI [39]: > 100 µM | TGI [40]: > 100 µM | TGI [41]: > 100 µM | TGI [42]: > 100 µM | TGI [43]: > 100 µM | TGI [44]: > 100 µM | TGI [45]: > 100 µM | TGI [46]: > 100 µM | TGI [47]: > 100 µM | TGI [48]: > 100 µM | TGI [49]: > 100 µM | TGI [50]: > 100 µM | TGI [51]: > 100 µM | TGI [52]: > 100 µM | TGI [53]: > 100 µM | TGI [54]: > 100 µM | TGI [55]: > 100 µM | TGI [56]: > 100 µM | TGI [57]: > 100 µM | TGI [58]: > 100 µM | TGI [59]: > 100 µM

CC(C)=CC(=O)c1[nH]c2ccccc2c1CC(=O)NCCc1cn(C(c2ccccc2)(c2ccccc2)c2ccccc2)cn1
TGI [1]: > 100 µM | TGI [2]: 3.44 µM | TGI [3]: > 100 µM | TGI [4]: 4.72 µM | TGI [5]: > 100 µM | TGI [6]: > 40.4 µM | TGI [7]: 4.8 µM | TGI [8]: > 27.4 µM | TGI [9]: > 26.1 µM | TGI [10]: > 100 µM | TGI [11]: > 100 µM | TGI [12]: 3.4 µM | TGI [13]: 12.5 µM | TGI [14]: 10.6 µM | TGI [15]: > 100 µM | TGI [16]: 87.7 µM | TGI [17]: 11 µM | TGI [18]: 4.88 µM | TGI [19]: 5.21 µM | TGI [20]: > 100 µM | TGI [21]: 6.36 µM | TGI [22]: > 42.7 µM | TGI [23]: 10.8 µM | TGI [24]: 19.8 µM | TGI [25]: > 100 µM | TGI [26]: > 67.4 µM | TGI [27]: 3.54 µM | TGI [28]: > 100 µM | TGI [29]: 14.2 µM | TGI [30]: 10.6 µM | TGI [31]: > 100 µM | TGI [32]: > 100 µM | TGI [33]: > 24.3 µM | TGI [34]: > 100 µM | TGI [35]: 12.4 µM | TGI [36]: > 59.6 µM | TGI [37]: > 30.4 µM | TGI [38]: 3.78 µM | TGI [39]: 6.28 µM | TGI [40]: > 29.4 µM | TGI [41]: > 56.5 µM | TGI [42]: > 100 µM | TGI [43]: 6.75 µM | TGI [44]: 4.46 µM | TGI [45]: 5.23 µM | TGI [46]: 4.42 µM | TGI [47]: > 45 µM | TGI [48]: > 36.2 µM | TGI [49]: > 50.5 µM | TGI [50]: > 58.7 µM | TGI [51]: > 100 µM | TGI [52]: 5.49 µM | TGI [53]: 9.17 µM | TGI [54]: 9.75 µM | TGI [55]: > 53.3 µM | TGI [56]: 3.84 µM | TGI [57]: 13.5 µM | TGI [58]: > 23.9 µM | TGI [59]: > 100 µM

CCOC(=O)NC(Nc1ccc(OC(F)(F)F)cc1)(C(F)(F)F)C(F)(F)F
TGI [1]: > 100 µM | TGI [2]: > 100 µM | TGI [3]: > 100 µM | TGI [4]: > 100 µM | TGI [5]: > 100 µM | TGI [6]: > 100 µM | TGI [7]: > 100 µM | TGI [8]: > 100 µM | TGI [9]: > 100 µM | TGI [10]: > 100 µM | TGI [11]: > 100 µM | TGI [12]: > 100 µM | TGI [13]: > 100 µM | TGI [14]: > 100 µM | TGI [15]: > 100 µM | TGI [16]: > 100 µM | TGI [17]: > 100 µM | TGI [18]: > 100 µM | TGI [19]: > 100 µM | TGI [20]: > 100 µM | TGI [21]: > 100 µM | TGI [22]: > 100 µM | TGI [23]: > 100 µM | TGI [24]: > 100 µM | TGI [25]: > 100 µM | TGI [26]: > 100 µM | TGI [27]: > 100 µM | TGI [28]: > 100 µM | TGI [29]: > 100 µM | TGI [30]: > 100 µM | TGI [31]: > 100 µM | TGI [32]: > 100 µM | TGI [33]: > 100 µM | TGI [34]: > 100 µM | TGI [35]: > 100 µM | TGI [36]: > 100 µM | TGI [37]: > 100 µM | TGI [38]: > 100 µM | TGI [39]: > 100 µM | TGI [40]: > 100 µM | TGI [41]: > 100 µM | TGI [42]: > 100 µM | TGI [43]: > 100 µM | TGI [44]: > 100 µM | TGI [45]: > 100 µM | TGI [46]: > 100 µM | TGI [47]: > 100 µM | TGI [48]: > 100 µM | TGI [49]: > 100 µM | TGI [51]: > 100 µM | TGI [52]: > 100 µM | TGI [53]: > 100 µM | TGI [54]: > 100 µM | TGI [55]: > 100 µM | TGI [56]: > 100 µM | TGI [57]: > 100 µM | TGI [58]: > 100 µM | TGI [59]: > 100 µM
